# According to PMC11328603 (Journal of Enzyme Inhibition and Medicinal Chemistry, 2024):
# Target: Escherichia coli β-glucuronidase (EcGUS) (Escherichia coli, UniProt P05804)
# Experiment: PNPG hydrolysis assay, Lineweaver-Burk kinetics
# Assay type: biochemical
# Escherichia coli β-glucuronidase (EcGUS), sequence (P05804 whole entry): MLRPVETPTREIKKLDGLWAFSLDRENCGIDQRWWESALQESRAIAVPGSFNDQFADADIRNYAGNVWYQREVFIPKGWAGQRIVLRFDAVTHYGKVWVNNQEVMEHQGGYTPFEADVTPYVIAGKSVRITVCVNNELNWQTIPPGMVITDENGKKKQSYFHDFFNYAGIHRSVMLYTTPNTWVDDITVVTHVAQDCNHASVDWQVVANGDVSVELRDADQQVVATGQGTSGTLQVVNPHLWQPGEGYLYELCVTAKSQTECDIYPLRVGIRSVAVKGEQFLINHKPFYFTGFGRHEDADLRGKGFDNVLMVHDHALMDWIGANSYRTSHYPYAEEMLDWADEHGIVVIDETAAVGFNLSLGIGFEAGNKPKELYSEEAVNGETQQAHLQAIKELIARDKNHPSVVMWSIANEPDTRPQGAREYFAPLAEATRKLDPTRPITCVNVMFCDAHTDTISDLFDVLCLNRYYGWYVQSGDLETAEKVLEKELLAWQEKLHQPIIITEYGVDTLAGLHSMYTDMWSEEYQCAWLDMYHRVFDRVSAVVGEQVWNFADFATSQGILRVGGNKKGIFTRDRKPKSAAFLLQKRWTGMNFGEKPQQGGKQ
smiles,measurement,value
"Clc1ccc2c(c1)C(N1CCNCC1)=Nc1ccccc1O2 [AMX, amoxapine]","PNPG hydrolysis assay, Lineweaver-Burk kinetics",both AMX and E-9 acted as uncompetitive inhibitors against EcGUS
